Patent publication US10512656B2, “Compositions and methods for the treatment of lysosomal storage disorders and disorders characterized by lysosomal dysfunction” (Baylor College of Medicine, priority 2016, dated 2019)

Legend:
MITF = MITF nuclear translocation in HeLa cells; format: cell-based, human; settings: HeLa cells transfected with MITF-3×Flag
From the text: (§1) FIG. 23. Pharmacological inhibition of AKT induces nuclear translocation of TFE3 and MITF. HeLa cells were transiently transfected with TFE3-3×Flag (a) and MITF-3×Flag (b) and analyzed by confocal microscopy. Scale bar is 10 μm.

TFE3 = TFE3 nuclear translocation in HeLa cells; format: cell-based, human; settings: HeLa cells transfected with TFE3-3×Flag
From the text: as §1

TFEB S211 = TFEB S211 phosphorylation (Phospho(Ser)-14-3-3 binding motif immunoblot); format: cell-based, human; settings: HeLa cells transfected with TFEB-Flag, trehalose 24 h
Description: FIG. 9. […] TFEB-Flag was immunoprecipitated from HeLa cells transfected with TFEB-Flag and treated with trehalose for 24 h or left untreated. Immunoblot analyses were performed using antibody against Phospho(Ser)-14-3-3 binding motif and control antibodies.

lysosomal genes = assay: Microarray expression analysis (gene ontology, GSEA) of fibroblasts; format: cell-based, human
Description: Total RNA from control and JNCL fibroblasts with and without trehalose treatment (100 mM, 4 days) was used to prepare complementary DNA for hybridization to the Illumina Human HT-12 V4.0 array platform. Experiments were performed in triplicate. Expression analysis was performed at the Microarray Core and Cell and Regulatory Biology, University of Texas, Houston, Tex., USA. A […] was used as a threshold for significance for assessing differential gene expression. GSEA was performed as previously described^10,11. The cumulative distribution function was constructed by performing 1,000 random gene set membership assignments. A nominal P<0.01 and an FDR<10% were used as thresholds for significance of the ES. Gene ontology analysis was performed with the web tool DAVID (https://david.ncifcrf.gov/) using default parameters. Pathway co-expression analyses were performed as previously described^8,9, and Cytoscape was used to represent graphically the expression correlation data.

Cln3^Δex7-8 mice [1] = assay: Storage burden (autofluorescent storage material, confocal thresholding); format: in vivo, mouse; settings: S1BF and VPM/VPL, 7- and 12-month-old Cln3^Δex7-8 mice
Description: To analyse the relative level of the autofluorescent storage material present in each brain region, mouse brain sections spanning the S1BF and VPM/VPL were mounted onto gelatin-chrome-coated slides and cover-slipped with Vectashield (Vector Laboratories, Peterborough, UK). Non-overlapping images from each section were captured at ×63 magnification using a Leica SP5 confocal microscope and a 488 nm excitation laser (Leica Microsystem). Thresholding image analysis was performed to determine the storage burden present in each region. During image capture, all laser parameters and calibrations were kept constant. Semiquantitative thresholding image analysis was carried out using ImageJ (NIH).

[2] = humans, oral; cited from earlier work
Cln3^Δex7-8 mice [3] = assay: TEM counting of fingerprint profiles; format: in vivo, mouse
Description: Mice were anaesthetized and perfused intracardially with saline solution followed by 2% formaldehyde+2.5% glutaraldehyde in 0.1M sodium cacodylate buffer (pH 7.4). Brains were removed and small pieces of cerebellum and cortex were collected, and further postfixed in 2% formaldehyde|o2.5% glutaraldehyde, 0.1M sodium cacodylate buffer (pH 7.4) for 24 h. One-hundred micrometer coronal sections were cut with a vibratome and fixed in 1% OsO4 in 0.1M cacodylate for 1 h, stained with uranyl acetate dehydrated and embedded in Eponate 812. Ultrathin sections at 60 nm were obtained on an RMC MT6000 ultramicrotome and examined with a Hitachi H7500 transmission electron microscope. Images were captured using a Gatan US1000 high-resolution digital camera and Digital Micrograph software (v1.82.366).

Cln3^Δex7-8 and WT mice = assay: Auditory brainstem response (ABR) measurements; format: in vivo, mouse; settings: 10-month-old mice, both genotypes, vs untreated age-matched controls
Description: ABRs were measured as previously described^69. Briefly, 10-month-old mice (n=4-6 per genotype/treatment group) were anaesthetized using an intraperitoneal injection of ketamine (100 mg/kg) and xylazine (10 mg/kg) and then immobilized in a head holder. Normal body temperature was maintained throughout the procedure by placing the mice on a heating pad. Pure tone stimuli from 4 to 48 kHz were generated using Tucker-Davis Technologies System 3 digital signal processing hardware and software (Tucker-Davis Technologies, Alachua, Fla., USA), and the intensity of the tone stimuli was calibrated using a type 4,938 ¼″ pressure-field calibration microphone (Bruel and Kjar, Nrum, Denmark). Response signals were recorded with subcutaneous needle electrodes inserted at the vertex of the scalp, the postauricular region and the back leg (ground)^69. Auditory thresholds were determined by decreasing the sound intensity of each stimulus from 90 to 10 dB in 5 dB steps, until the lowest sound intensity with reproducible and recognizable waves in the response was reached. Mean hearing thresholds±s.d. (dB SPL) were plotted as a function of stimulus frequency (kHz). Statistical analysis consisted of one-way analyses of variance to reveal overall trends accompanied by two-tailed Student's t-tests at individual frequencies to evaluate frequency-specific effects. […]

Cln3^Δex7-8 mice [4] = assay: Wet brain weight; format: in vivo, mouse; settings: 12-month-old Cln3^Δex7-8 mice, trehalose treatment; untreated 0.355±0.024 g, WT 0.516±0.021 g
Description: Cln3^Δex7-8 mice (stock no. 004685; Cln3^tm1.1Mem/J; CD-1 background)^32 were obtained from the Jackson Laboratory. Control (CD-1) and Cln3^Δex7-8 mice were housed 3-4 per cage in a room with a 12-h light/12-h dark cycle. Food and water were provided ad libitum. All mice used in this study were analyzed at 8 and 12 months of age and were littermates produced by crossing heterozygous Cln3^Δex7-8 mice. Only males were used for this analysis. Investigators were blinded when analyzing the data, and no randomization was necessary. No data were excluded from this study.
Trehalose (Swanson) was dissolved in drinking water to a final concentration of 2% and changed twice a week. Trehalose-containing water was given to Cln3^Δex7-8 and WT mice by spontaneous oral administration starting at 21 days of age and continuing until the day the mice died naturally (life span assessment) or were sacrificed for other studies.

SMILES	MITF nuclear translocation (MITF)	TFE3 nuclear translocation (TFE3)	phosphorylation of TFEB S211 (TFEB S211)	GSEA enrichment score, TFEB direct targets with a known role in lysosomal metabolism (lysosomal genes; control fibroblasts, P<0.0001)	GSEA enrichment score, lysosomal genes (lysosomal genes; control fibroblasts, P<0.0001)	gene ontology fold enrichment of lysosomal metabolism genes (lysosomal genes; genes with at least twofold change, JNCL and control fibroblasts, trehalose 100 mM 4 days)	punctate autofluorescent storage material (Cln3^Δex7-8 mice [1])	ingested trehalose absorbed into the blood stream [2]	number of fingerprint profiles (Cln3^Δex7-8 mice [3]; Purkinje cells, P=0.047)	number of fingerprint profiles (Cln3^Δex7-8 mice [3]; cortical neurons, P=0.017)	ABR thresholds (Cln3^Δex7-8 and WT mice)	wet brain weight (Cln3^Δex7-8 mice [4])
Cl.NC1(c2ccc(-c3nc4ccn5c(=O)[nH]nc5c4cc3-c3ccccc3)cc2)CCC1 [MK2206, 8-[4-(1-aminocyclobutyl)phenyl]-9-phenyl-1,2,4-triazolo[3,4-f][1,6]naphthyridin-3(2H)-one]	promoted nuclear translocation of these two factors	promoted nuclear translocation of these two factors	–	–	–	–	–	–	–	–	–	–
OC[C@H]1O[C@H](O[C@H]2O[C@H](CO)[C@@H](O)[C@H](O)[C@H]2O)[C@H](O)[C@@H](O)[C@@H]1O [trehalose, a-D-glucopyranosyl a-D-glucopyranoside]	–	–	does not modify phosphorylation of TFEB S211	0.82	0.67	> 5	significantly reduced	Less than 0.5%	significantly reduced the number of fingerprint profiles	significantly reduced the number of fingerprint profiles	lower ABR thresholds	0.473 ± 0.028 g
